Assay results reported in patent US20250354986A1, “AFFINITY ENCODED OSCILLATOR ARRAYS, METHODS, AND RELATED ASPECTS FOR MEASURING MOLECULAR BINDING KINETICS” (ARIZONA BOARD OF REGENTS ON BEHALF OF ARIZONA STATE …, priority 2024, published 2025).
Where a name gives a salt, the structure may show the parent alone.

Key:
[1] = system: K082 virions with no GPCR displayed on the envelope; assay: Control nano-oscillators: K082 virion with no GPCR, or AuNP only; conditions: K082 virion with no GPCR displayed, or AuNP only without virion
Procedure: By fitting the binding curves with the first order kinetics model, the associate rate constant, dissociate rate constant and equilibrium constants for each nano-oscillator were obtained. […] To validate the individual nano-oscillator results, interactions of the same ligand with high density ensemble virion-oscillators were measured (FIG. 15). The binding response curves are the averaged oscillation amplitude of the entire ensemble area as a function of time. […] This phenomenon is likely due to the heterogeneity in GPCR expression level among individual virions, which will affect maximum binding signal, but not the binding kinetics.

[2] = stated without a test; cited from earlier work
decoding sequence 1 = conditions: for averaged equilibrium affinity constant (KA): first barcode group hybridized with its DNA decoding sequence, 37 individual nano-oscillators per probe; for Median of amplitude change for association: group 1 barcode nano-oscillators, hybridization signal
Procedure: (§1) To enable affinity-based barcoding, it is important to ensure nanoarrays are addressable by distinct affinities induced by different nucleotides mismatches. […] Perfectly matched, two and three-nucleotide mismatched complementary single DNA strains were used as barcode sequences on the nanocomplexes. Attributed to the charge-sensitive detection capability of nano-oscillators, hybridization of the charge-rich decoding DNA onto the nano-oscillators were recorded in real-time, enabling the calculation of hybridization affinities.
(§2) In FIG. 8, for each kind of barcode sequence, 37 individual nano-oscillators were measured for statistical study.
(§3) The second step of the measurement is decoding, which identifies the type of GPCRs on individual nano-oscillators, and was achieved by sequentially measuring the binding affinity of all decoding sequences. Each round of decoding flowed 50 nM of a specific readout sequence to hybridize with the barcodes on the nano-oscillator for 550 seconds, followed by buffer washing to dissociate the readout sequence for a duration of 250 seconds. Conducting the ligand screening before decoding can prevent potential issue of saturated oscillation amplitude change that may arise from excessively high negatively charged nano-oscillators after hybridization with the decoding sequence. Throughout all experiments, the injected sample was driven by a syringe pump and flowed onto the upper right portion of the field-of-view to minimize mass transport issues.
(§4) After recording the images, a region of interest (ROI) was selected on each particle (covering the parabolic tail), and the mean intensity within the ROI was calculated as the plasmonic intensity. An adjacent region with the same size was selected as the reference region, and its intensity was used to remove common noise from the ROI. The oscillation amplitude was obtained in every second using fast Fourier transform (FFT). The FFT intensity at the oscillation frequency was then plotted against time to illustrate both the binding trend and decoding process. Response curve fitting and calculation of binding kinetic constants were conducted using Scrubber (BioLogic Software). All data were visualized using Origin and MATLAB.

decoding sequence 2 = conditions: for Median of amplitude change for association: group 2 barcode nano-oscillators, hybridization signal; for averaged equilibrium affinity constant (KA): second barcode group hybridized with its DNA decoding sequence, 37 individual nano-oscillators per probe
Procedure: as §1, §2, §3, §4

CC(C)NCC(O)COc1cccc2ccccc12 (centres unmarked) [Propranolol, Propranolol hydrochloride]
oscillation amplitude response of control nano-oscillators to ligand [1]: not obvious responding

Tocrifluor
charge at pH 7.4 [2]: neutral

biotin-(CH2)6-5′-ACAATACCTCGGCCCTTCTC-3′ [barcode 1 (group 1)]
averaged equilibrium affinity constant (KA) (decoding sequence 1): (8.1±1.1)×10^8 M^−1
Median of amplitude change for association (decoding sequence 1): 9.7 nm

biotin-(CH2)6-5′-ACACTACCTCAGCCCTCCTC-3′ [barcode 3 (group 1)]
averaged equilibrium affinity constant (KA) (decoding sequence 1): (5.9±0.82)×10^6 M^−1
Median of amplitude change for association (decoding sequence 1): 7.5 nm

biotin-(CH2)6-5′-ACACTACCTCAGCCCTCCTC-3′ [barcode 3 (group 2)]
Median of amplitude change for association (decoding sequence 2): 7.2 nm
averaged equilibrium affinity constant (KA) (decoding sequence 2): (2.0±0.78)×10^6 M^−1

biotin-(CH2)6-5′-ACACTACCTCGGCCCTCCTC-3′ [barcode 2 (group 1)]
averaged equilibrium affinity constant (KA) (decoding sequence 1): (5.3±0.74)×10^7 M^−1
Median of amplitude change for association (decoding sequence 1): 9.6 nm

biotin-(CH2)6-5′-GAGTTACTACAGACCATCGT-3′ [barcode 2 (group 2)]
Median of amplitude change for association (decoding sequence 2): 10.9 nm
averaged equilibrium affinity constant (KA) (decoding sequence 2): (6.5±1.1)×10^7 M^−1

biotin-(CH2)6-5′-GAGTTGCTACAGACCTTCGT-3′ [barcode 1 (group 2)]
Median of amplitude change for association (decoding sequence 2): 11.6 nm
averaged equilibrium affinity constant (KA) (decoding sequence 2): (7.1±0.98)×10^8 M^−1
